Laboratory results reported in patent US6448431B1, “Production of aryl carboxylate esters” (priority 1999, dated 2002).

Columns and labels:
[1] = cited from earlier work
[2] = Solubility of NOBS in selected solvents; format: physicochemical; conditions: 23° C., grams of NOBS soluble in 100 grams of solution
Description: The solvent properties of TFA are unique and highly advantageous in the synthesis of phenolsulfonate esters. […] It is notable that the only solvent in which NOBS is more soluble than water is TFA. I have found no better solvent for NOBS than TFA. This is surprising. […] It is likely that hydrogen bonding in TFA facilitates the solvation of sulfonate anions but it is notable, in contrast, that such effects are much weaker in acetic acid. Furthermore, while it is known in the art that dimethyl sulfoxide (DMSO) and dimethylformamide (DMF) are relatively good solvents for benzenesulfonate esters they are much weaker solvents than TFA and because TFA has a much lower boiling point than these dipolar aprotic solvents it is the only good solvent for benzenesulfonate esters which can be readily stripped from product solutions and then purified and recycled with relative ease.

O=C(O)C(F)(F)F [CF3CO2H, trifluoroacetic acid]
Aqueous pKa [1]: 0.22

CCCCCCCCC(=O)Oc1ccc(S(=O)(=O)[O-])cc1.[Na+] [NOBS, sodium 4-(nonanoyloxy)benzenesulfonate]
Solubility of NOBS, wt % NOBS ([2]; solvent DMF): 10.1 wt %
Solubility of NOBS, wt % NOBS ([2]; solvent DMSO): 15.9 wt %
Solubility of NOBS, wt % NOBS ([2]; solvent NMP): 8.4 wt %
Solubility of NOBS, wt % NOBS ([2]; solvent TFA): 23.4 wt %
Solubility of NOBS, wt % NOBS ([2]; solvent acetic acid): 1.7 wt %
Solubility of NOBS, wt % NOBS ([2]; solvent acetone): 0.02 wt %
Solubility of NOBS, wt % NOBS ([2]; solvent acetonitrile): 0.01 wt %
Solubility of NOBS, wt % NOBS ([2]; solvent nonanoic acid): 0.03 wt %
Solubility of NOBS, wt % NOBS ([2]; solvent water): 22.8 wt %
